In the assay the target is T1, EGFR TMLRCS (BaF3-TMLRCS cell line) (Homo sapiens, UniProt P00533, C797S/L858R/T790M).
T1 construct: host or cells: BaF3 (murine pro-B cells) engineered to express EGFR TMLRCS
The assay is described as follows: HTRF Phospho EGFR TMLRCS assay (cellular). In kind it is cell-based. The following applies: BaF3-TMLRCS cells, 4 hours incubation. How it is done:
HTRF Phospho EGFR TMLRCS Assay (Cellular)
BaF3-TMLRCS cell line were obtained from Crownbio (San Diego, CA, USA). Cells were maintained at 37° C., 5% CO2 in RPMI ATCC (Gibco 31870) + 2 mM Glutamine + 0.5 µg/ml Puromycin supplemented with 10% fetal bovine serum (FBS) (Gibco).
Cells are transferred as above to Greiner Bio-One, Nr. 784-08 micro-titerplate at 20000 cells/well in 12.5 µl of growth medium/well after the plates had been pre-filled with 12.5 nl of DMSO solutions of the to be tested compound (in dose response) or DMSO only. After spinning the plates at 300 × g for 30 seconds the cells were incubated for 4 hours at 37C, 5% CO2, 95% humidity. The cells were lysed by adding to the compound mix 4 µl/well of the supplemented lysis buffer (Cis-bio, Phospho-EGFR HTRF kit, 64EG1PEH), followed by incubation for 30 min at room temperature with shaking (400 rpm). The plates were then frozen and stored overnight at -80C. […] The lidded plates were then incubated for 4 h at room temperature before reading the fluorescence emission at 616 and 665 nm using an Envision reader (Perkin Elmer). Data was analyzed in similar fashion as above using the normalized ratio of the 665 to 616 signals multiplied by 10000.

T1 sequence (P00533 25-1210 T790M/C797S/L858R): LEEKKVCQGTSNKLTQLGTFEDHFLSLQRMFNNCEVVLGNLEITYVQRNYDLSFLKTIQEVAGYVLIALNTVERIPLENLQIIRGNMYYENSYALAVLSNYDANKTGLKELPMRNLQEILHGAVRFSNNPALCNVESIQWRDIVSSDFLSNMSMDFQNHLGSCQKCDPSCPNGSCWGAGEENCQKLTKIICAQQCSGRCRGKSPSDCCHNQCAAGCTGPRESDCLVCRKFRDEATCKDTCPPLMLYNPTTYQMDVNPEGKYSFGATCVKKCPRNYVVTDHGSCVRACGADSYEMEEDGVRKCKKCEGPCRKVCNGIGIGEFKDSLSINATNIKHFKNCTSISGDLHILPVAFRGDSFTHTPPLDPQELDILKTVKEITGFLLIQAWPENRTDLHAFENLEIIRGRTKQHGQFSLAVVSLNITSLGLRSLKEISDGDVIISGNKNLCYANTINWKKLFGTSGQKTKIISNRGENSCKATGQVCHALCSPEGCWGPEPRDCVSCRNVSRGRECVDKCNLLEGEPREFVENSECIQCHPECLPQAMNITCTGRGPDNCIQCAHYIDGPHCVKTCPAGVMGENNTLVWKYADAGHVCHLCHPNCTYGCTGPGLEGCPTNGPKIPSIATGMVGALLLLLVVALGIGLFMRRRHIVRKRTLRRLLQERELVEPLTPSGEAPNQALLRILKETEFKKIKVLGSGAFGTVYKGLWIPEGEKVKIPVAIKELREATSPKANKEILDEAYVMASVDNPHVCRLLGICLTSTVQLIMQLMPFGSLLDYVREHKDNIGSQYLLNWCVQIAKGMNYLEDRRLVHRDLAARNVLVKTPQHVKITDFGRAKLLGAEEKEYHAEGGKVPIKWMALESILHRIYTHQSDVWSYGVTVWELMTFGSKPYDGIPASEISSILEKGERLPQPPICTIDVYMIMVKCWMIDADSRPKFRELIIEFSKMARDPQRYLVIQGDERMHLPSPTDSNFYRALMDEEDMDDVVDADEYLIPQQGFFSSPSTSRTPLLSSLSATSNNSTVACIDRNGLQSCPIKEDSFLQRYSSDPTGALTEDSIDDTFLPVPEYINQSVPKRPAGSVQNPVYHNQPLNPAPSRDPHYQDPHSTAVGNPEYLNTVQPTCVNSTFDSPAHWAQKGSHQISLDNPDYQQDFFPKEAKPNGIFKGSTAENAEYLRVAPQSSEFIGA

`O=C(Nc1nccs1)C(c1ncn2c1CCC2)N1Cc2c(Cl)cc(C#Cc3ccc(CN4CCC(CO)CC4)cc3)cc2C1=O` (racemic) [Example 1, 2-[4-chloro-6-[2-[4-[[4-(hydroxymethyl)-1-piperidyl]methyl]phenyl]ethynyl]-1-oxo-isoindolin-2-yl]-2-(6,7-dihydro-5H-pyrrolo[1,2-c]imidazol-1-yl)-N-thiazol-2-yl-acetamide]: the IC50 is 3 nM.

Source of the values: patent US20230034696A1, “EGFR INHIBITORS” (Hoffmann-La Roche Inc., priority 2019, published 2023).
